These results are taken from ChEMBL document CHEMBL1146191, “Synthesis and evaluation of novel 1-(2-acylhydrazinocarbonyl)-cycloalkyl carboxamides as interleukin-1beta converting enzyme (ICE) inhibitors” (Bioorg Med Chem Lett, 2006).

Some results are limits rather than exact numbers.

For orientation: IC50 means the midpoint of a concentration-inhibition curve.

The target of one experiment is T1, Caspase-1 (Homo sapiens, UniProt P29466).
T1 sequence (P29466 whole entry): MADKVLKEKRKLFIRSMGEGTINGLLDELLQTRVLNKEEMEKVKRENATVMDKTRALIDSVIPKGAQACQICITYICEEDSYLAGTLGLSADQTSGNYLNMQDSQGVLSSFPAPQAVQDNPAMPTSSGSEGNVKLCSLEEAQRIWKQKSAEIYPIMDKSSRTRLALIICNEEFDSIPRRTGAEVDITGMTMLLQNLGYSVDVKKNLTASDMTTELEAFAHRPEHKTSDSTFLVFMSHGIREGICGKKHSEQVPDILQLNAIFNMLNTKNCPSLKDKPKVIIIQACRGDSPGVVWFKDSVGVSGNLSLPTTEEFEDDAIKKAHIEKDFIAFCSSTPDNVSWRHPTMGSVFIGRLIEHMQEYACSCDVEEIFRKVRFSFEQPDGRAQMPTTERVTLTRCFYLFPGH
As to the kind of experiment: Inhibition of ICE.

Another experiment concerns the target Caspase-8 (Homo sapiens, UniProt Q14790). As to the kind of experiment: Inhibition of caspase8.
The next experiment concerns the target T2, Caspase-3 (Homo sapiens, UniProt P42574).
T2 sequence (P42574 whole entry): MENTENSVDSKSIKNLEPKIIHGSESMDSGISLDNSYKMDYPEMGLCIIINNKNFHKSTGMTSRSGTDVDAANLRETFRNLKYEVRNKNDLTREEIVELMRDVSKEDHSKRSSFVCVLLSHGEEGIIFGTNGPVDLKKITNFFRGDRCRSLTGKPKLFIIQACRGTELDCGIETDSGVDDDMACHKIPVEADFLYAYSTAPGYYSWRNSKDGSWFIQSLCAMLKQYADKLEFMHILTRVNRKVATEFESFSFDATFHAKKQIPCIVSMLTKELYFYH
As to the kind of experiment: Inhibition of caspase3.

In a further experiment the test system is THP-1. As to the kind of experiment: Inhibition of IL1-beta secretion in human THP1 cells. Type of experiment: functional, cell-based.

Chain of Caspase-8 (Q14790 217-374 limits assumed): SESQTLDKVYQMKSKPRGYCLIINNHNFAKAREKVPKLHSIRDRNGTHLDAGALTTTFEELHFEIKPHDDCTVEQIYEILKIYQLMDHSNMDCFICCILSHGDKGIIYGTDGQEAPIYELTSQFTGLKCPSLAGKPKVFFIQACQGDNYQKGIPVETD
Chain of Caspase-8 (Q14790 385-479 limits assumed): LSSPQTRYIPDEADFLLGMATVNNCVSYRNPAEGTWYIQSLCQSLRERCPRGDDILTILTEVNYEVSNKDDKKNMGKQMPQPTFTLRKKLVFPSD

Consider `O=C1C[C@H](NC(=O)C2(C(=O)NNC(=O)c3cccc4ccccc34)CCCCC2)C(O)O1` (stereo not given in full), for which the IC50 was 50 nM against Caspase-1, 70 nM against Caspase-8, over 10000 nM against Caspase-3 and 450 nM in the experiment on THP-1.
As for `Cc1cccc(C(=O)NNC(=O)C2(C(=O)N[C@H]3CC(=O)OC3O)CCCC2)c1` (stereo not given in full), the IC50 on Caspase-1 is 490 nM; against Caspase-8, 1200 nM; on Caspase-3, over 10000 nM; in the experiment on THP-1, 2000 nM.
As for `Cc1cccc(C)c1C(=O)NNC(=O)C1(C(=O)N[C@H]2CC(=O)OC2O)CCCCC1` (stereo not given in full), the IC50 against Caspase-1 was at least 10000 nM; against Caspase-8, 230 nM; against Caspase-3 it was over 10000 nM; with THP-1 it was at least 2500 nM.
Turning to `O=C1C[C@H](NC(=O)C2(C(=O)NNC(=O)c3ccc4ccccc4c3)CCC2)C(O)O1` (stereo not given in full), the IC50 was 240 nM on Caspase-1, 6300 nM against Caspase-8 and over 10000 nM against Caspase-3.
Consider `O=C1C[C@H](NC(=O)C2(C(=O)NNC(=O)c3ccc4ccccc4c3)CCCCC2)C(O)O1` (stereo not given in full), for which the IC50 on Caspase-1 is 90 nM; at Caspase-8, 2600 nM; against Caspase-3, over 10000 nM; in the experiment with THP-1, 790 nM.
As for `O=C1C[C@H](NC(=O)C2(C(=O)NNC(=O)c3ccc4ccccc4c3)Cc3ccccc3C2)C(O)O1` (stereo not given in full), the IC50 is 30 nM on Caspase-1, 2100 nM on Caspase-8, over 10000 nM against Caspase-3 and 500 nM in the experiment on THP-1.
The matching figures for `O=C1C[C@H](NC(=O)C2(C(=O)NNC(=O)c3ccc4ccccc4c3)CC2)C(O)O1` (stereo not given in full): 2900 nM, at least 10000 nM, over 10000 nM and 6400 nM.
Take `O=C1C[C@H](NC(=O)C2(C(=O)NNC(=O)c3cccc4ccccc34)Cc3ccccc3C2)C(O)O1` (stereo not given in full): the IC50 on Caspase-1 is 40 nM; on Caspase-8, 420 nM; on Caspase-3, over 10000 nM; in the experiment on THP-1, 690 nM.
As for `O=C1C[C@H](NC(=O)C2(C(=O)NNC(=O)c3cccc4ccccc34)CCCC2)C(O)O1` (stereo not given in full), the IC50 is 40 nM against Caspase-1, 90 nM at Caspase-8, over 10000 nM against Caspase-3 and 480 nM in the experiment on THP-1.
Consider `Cc1ccccc1C(=O)NNC(=O)C1(C(=O)N[C@H]2CC(=O)OC2O)CCC1` (stereo not given in full), for which the IC50 against Caspase-1 was 310 nM; against Caspase-8, 310 nM; against Caspase-3, over 10000 nM; in the experiment on THP-1, 610 nM.
Take `Cc1ccc(C(=O)NNC(=O)C2(C(=O)N[C@H]3CC(=O)OC3O)CCC2)cc1` (stereo not given in full): the IC50 was 580 nM on Caspase-1, 4300 nM against Caspase-8, over 10000 nM against Caspase-3 and 6900 nM in the experiment on THP-1.
`Cc1cccc(C(=O)NNC(=O)C2(C(=O)N[C@H]3CC(=O)OC3O)CCC2)c1` (stereo not given in full): the IC50 was 150 nM on Caspase-1, 2700 nM at Caspase-8, over 10000 nM at Caspase-3 and 620 nM in the experiment with THP-1.
With `O=C1C[C@H](NC(=O)C2(C(=O)NNC(=O)c3cccc4ccccc34)CCC2)C(O)O1` (stereo not given in full), the IC50 is 50 nM against Caspase-1, 130 nM against Caspase-8, over 10000 nM against Caspase-3 and 470 nM in the experiment with THP-1.
As to `Cc1cccc(C(=O)NNC(=O)C2(C(=O)N[C@H]3CC(=O)OC3O)CCCCC2)c1` (stereo not given in full), the 50% inhibitory concentration (IC50) against Caspase-1 is 430 nM; against Caspase-8 it was 3900 nM; against Caspase-3, over 10000 nM; with THP-1, 470 nM.
As to `COc1cccc(OC)c1C(=O)NNC(=O)C1(C(=O)N[C@H]2CC(=O)OC2O)CCCCC1` (stereo not given in full), the IC50 at Caspase-1 is 700 nM; at Caspase-8, 300 nM; against Caspase-3, over 10000 nM; in the experiment with THP-1, at least 2500 nM.
With `O=C1C[C@H](NC(=O)C2(C(=O)NNC(=O)c3ccc4ccccc4c3)CCCC2)C(O)O1` (stereo not given in full), the IC50 on Caspase-1 was 150 nM; against Caspase-8, 3200 nM; on Caspase-3, over 10000 nM; in the experiment on THP-1, 570 nM.
In the case of `COc1cccc(C(=O)NNC(=O)C2(C(=O)N[C@H]3CC(=O)OC3O)CCCCC2)c1` (stereo not given in full), the IC50 at Caspase-1 is 240 nM; against Caspase-8, 1800 nM; on Caspase-3, over 10000 nM; in the experiment with THP-1 it was 1300 nM.
As for `COc1cccc(C(=O)NNC(=O)C2(C(=O)N[C@H]3CC(=O)OC3O)CCCC2)c1` (stereo not given in full), the IC50 against Caspase-1 was 200 nM; against Caspase-8, 1170 nM; on Caspase-3 it was over 10000 nM; in the experiment with THP-1 it was 550 nM.
Consider `COc1cccc(C(=O)NNC(=O)C2(C(=O)N[C@H]3CC(=O)OC3O)CC2)c1` (stereo not given in full), for which the 50% inhibitory concentration (IC50) at Caspase-1 was at least 10000 nM; on Caspase-8, at least 10000 nM; against Caspase-3 it was over 10000 nM; with THP-1 it was at least 10000 nM.
On to `COc1cccc(C(=O)NNC(=O)C2(C(=O)N[C@H]3CC(=O)OC3O)CCC2)c1` (stereo not given in full), for which the IC50 was 260 nM at Caspase-1, 2200 nM against Caspase-8, over 10000 nM at Caspase-3 and 400 nM with THP-1.
The matching figures for `Cc1cccc(C(=O)NNC(=O)C2(C(=O)N[C@H]3CC(=O)OC3O)Cc3ccccc3C2)c1` (stereo not given in full): 430 nM, 3120 nM, over 10000 nM and at least 2500 nM.
Regarding `CCO[C@@H]1OC(=O)C[C@@H]1NC(=O)[C@@H]1CCCN2C(=O)CC[C@H](NC(=O)c3nccc4ccccc34)C(=O)N12` [PRALNACASAN], the IC50 was determined as 3.6 nM against Caspase-1 and 40 nM at Caspase-8.
